# Laboratory results as given in the supplement of paper PMC11061612.
# Experiments:
# [1] = system: REH (B-Lymphoblastic Leukemia); experiment: combination Emax (second highest fraction inhibited in the dose matrix, 72 h); higher = more inhibition; extreme values may be limits of the assay
# Method in brief: (§1)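 Cell lines grown in DMEM/F12 or RPMI with 10% FBS were plated in 1536-well plates and held 24 hours at 37°C, 5% CO2 before 72 hours of exposure to two-drug dose matrices, with DMSO typically at 0.2%. CellTiter-Glo 2.0 luminescence gave viability, which was converted to inhibition. Vehicle wells were set to 0 and blank wells to 1. Combination Emax is the second-highest inhibition in the matrix, and Bliss excess is the observed combination effect minus the expected EA + EB − EA·EB, where EA and EB are the single-agent effects.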
# [2] = system: WM793B (Melanoma); experiment: as above
# Method in brief: as §1
# [3] = system: A2058 (Melanoma); experiment: as above
# Method in brief: as §1
# [4] = system: SHP-77 (Small Cell Lung Carcinoma); experiment: as above
# Method in brief: as §1
# [5] = system: WM278 (Melanoma); experiment: as above
# Method in brief: as §1
# [6] = system: CAL-120 (Breast Carcinoma); experiment: as above
# Method in brief: as §1
# [7] = system: TE-8 (Esophageal Squamous Cell Carcinoma); experiment: as above
# Method in brief: as §1
# [8] = system: MKN45 (Gastric Carcinoma); experiment: as above
# Method in brief: as §1
# [9] = system: SU-DHL-10 (B-Cell Non-Hodgkin's Lymphoma); experiment: as above
# Method in brief: as §1
# [10] = system: RERF-LC-Sq1 (Squamous Cell Lung Carcinoma); experiment: as above
# Method in brief: as §1
# [11] = system: OVMIU (Ovarian Carcinoma); experiment: as above
# Method in brief: as §1
# [12] = system: MFE-280 (Endometrial Carcinoma); experiment: as above
# Method in brief: as §1
# [13] = system: IST-MES1 (Mesothelioma); experiment: as above
# Method in brief: as §1
# [14] = system: COLO-680N (Esophageal Squamous Cell Carcinoma); experiment: as above
# Method in brief: as §1
# [15] = system: CAL-62 (Thyroid Gland Carcinoma); experiment: as above
# Method in brief: as §1
# [16] = system: RKN (Other Solid Carcinomas); experiment: as above
# Method in brief: as §1
# [17] = system: 23132-87 (Gastric Carcinoma); experiment: as above
# Method in brief: as §1
# [18] = system: PANC-03-27 (Pancreatic Carcinoma); experiment: Bliss excess, mean over the matrix (fraction); higher = more synergy
# Method in brief: as §1
# [19] = system: SF539 (Glioblastoma); experiment: as above
# Method in brief: as §1
# [20] = system: RKN (Other Solid Carcinomas); experiment: as above
# Method in brief: as §1
# 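Wherever Bliss excess, mean over the matrix is given: after 72 h of two-drug dosing.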
Structure (SMILES),combination Emax [1],combination Emax [2],combination Emax [3],combination Emax [4],combination Emax [5],combination Emax [6],combination Emax [7],combination Emax [8],combination Emax [9],combination Emax [10],combination Emax [11],combination Emax [12],combination Emax [13],combination Emax [14],combination Emax [15],combination Emax [16],combination Emax [17],Bliss excess [18],Bliss excess [19],Bliss excess [20]
"CN(CCO)CC[C@H](CSc1ccccc1)Nc1ccc(S(=O)(=O)NC(=O)c2ccc(N3CCC([C@@H](O)c4ccccc4-c4ccc(Cl)cc4)CC3)cc2)cc1S(=O)(=O)C(F)(F)F [AZD4320] + C[C@@H]1COCCN1C2=NC(=NC(=C2)C3(CC3)[S@](=N)(=O)C)C4=C5C=CNC5=NC=C4 [AZD6738] (first compound max 1 µM, 7x7, partner max 10 µM)",1,0.844,0.782,0.662,0.789,0.757,0.799,0.8,0.899,0.791,0.824,0.88,0.296,0.346,0.936,0.242,0.84,-0.0392,-0.0706,-0.03
"CN(CCO)CC[C@H](CSc1ccccc1)Nc1ccc(S(=O)(=O)NC(=O)c2ccc(N3CCC([C@@H](O)c4ccccc4-c4ccc(Cl)cc4)CC3)cc2)cc1S(=O)(=O)C(F)(F)F [AZD4320] + C[C@@H](Nc1cc(F)cc(F)c1)c1cc(C(=O)N(C)C)cc2c(=O)cc(N3CCOCC3)oc12 [AZD8186] (first compound max 1 µM, 7x7, partner max 3 µM)",1,0.531,0.765,0.53,0.85,0.735,0.463,0.345,0.81,0.274,0.534,0.864,0.325,0.243,0.925,0.314,0.74,0.0439,0.0425,-0.0338
"CN(CCO)CC[C@H](CSc1ccccc1)Nc1ccc(S(=O)(=O)NC(=O)c2ccc(N3CCC([C@@H](O)c4ccccc4-c4ccc(Cl)cc4)CC3)cc2)cc1S(=O)(=O)C(F)(F)F [AZD4320] + Cc1cc2ncnn2cc1Nc1ncc2c(n1)n(C1CCOCC1)c(=O)n2C [AZD7648] (first compound max 1 µM, 7x7, partner max 10 µM)",1,0.221,0.0867,0.491,0.555,0.748,0.193,0.352,0.474,0.18,0.847,0.774,0.113,0.0933,0.26,0.135,0.2,-0.061,0.0095,-0.0467
"COc1nnc2ccc(N3CCC(c4ccc(OCCN5CCN(C)C(=O)[C@H]5C)cc4)CC3)nn12 [AZD5153] + C=CCn1c(=O)c2cnc(Nc3ccc(N4CCN(C)CC4)cc3)nc2n1-c1cccc(C(C)(C)O)n1 [AZD1775] (first compound max 1 µM, partner max 1 µM)",0.926,0.636,0.8,0.66,0.581,0.489,0.654,0.696,1,0.743,0.86,0.383,0.576,0.353,0.79,0.527,0.636,-0.152,-0.0303,-0.0898
"COc1nnc2ccc(N3CCC(c4ccc(OCCN5CCN(C)C(=O)[C@H]5C)cc4)CC3)nn12 [AZD5153] + CC1(C)CCC(CN2CCN(c3ccc(C(=O)NS(=O)(=O)c4ccc(NCC5CCOCC5)c([N+](=O)[O-])c4)c(Oc4cnc5[nH]ccc5c4)c3)CC2)=C(c2ccc(Cl)cc2)C1 [Venetoclax] (first compound max 1 µM, 7x7, partner max 1 µM)",0.911,0.523,0.432,0.405,0.447,0.336,0.491,0.566,1,0.52,0.666,0.38,0.591,0.344,0.753,0.485,0.141,-0.0422,-0.0797,-0.0369
"COc1nnc2ccc(N3CCC(c4ccc(OCCN5CCN(C)C(=O)[C@H]5C)cc4)CC3)nn12 [AZD5153] + CCN(CCO)CCCOc1ccc2c(Nc3cc(CC(=O)Nc4cccc(F)c4)[nH]n3)ncnc2c1 [AZD2811] (first compound max 1 µM, 7x7, partner max 1 µM)",0.903,0.641,0.788,0.432,0.466,0.441,0.556,0.556,1,0.555,0.706,0.348,0.653,0.357,0.774,0.44,0.173,-0.0487,-0.0184,-0.0286
